Patent publication US12116461B2, “Host-guest interactions for pa superstructure formation” (Northwestern University, priority 2020, dated 2024)
Where a SMILES comes first, the peptide text is derived from it. The star is where a group is joined. Palmitoyl = CCCCCCCCCCCCCCCC(=O)*

Experiments:
[1] = Rheological measurement of storage modulus; type: physicochemical; details: no free adamantane added
Protocol: (§1) PA materials were prepared and annealed using methods described in section 2.1.1. An Anton Paar MCR302 Rheometer with a 25 mm cone plate was used for all rheological studies. 150 μL of PA liquid was placed on the sample stage. For experiments using Free Adamantane, 30 μL of either 1 mM or 2 mM adamantane solution (prepared as described in section 2.1.3) was added in droplets to the top plunger. The plunger was then lowered to the measuring position and a humidity collar was added during the “sample trim” phase to prevent sample evaporation during the measurement. The sample was equilibrated for 30 minutes with a constant angular frequency of 10 rad/s and 0.1% strain. The storage and loss modulus were recorded. For thixotropy studies, the sample was applied to the stage as previously mentioned. The first and third interval consisted of 10, 6 second points with an oscillating shear strain of 0.1% and angular frequency of 10 rad/s. The storage and loss modulus were plotted against time. The second interval consisted of 10, 1 second points with a constant shear rate of 100 s^−1. The viscosity was plotted against time. For recovery experiments, G′ and G″ were measured during alternating intervals of low and high strain. The low strain interval was 200 seconds at 0.5% strain and the high strain interval was 50 seconds at 50% strain.

[2] = Thixotropy interval study (before/after high shear); type: physicochemical
Protocol: as §1

[3] = 1H-NMR titration, association constant of β-cyclodextrin with 1-adamantaneacetic acid; details: 1:1 host-guest binding model; 125 mM NaCl, 3 mM KCl buffer pH 7.2-7.4, 25° C.
Protocol: The association constant for the binding between 1-adamantaneacetic acid and β-cyclodextrin was measured in 125 mM NaCl and 3 mM KCl buffer at pH 7.2-7.4. In a typical titration experiment, small amounts of a “guest solution” (100 mM 1-adamantaneacetic acid and 3.5 mM β-cyclodextrin in deuterated buffer) were added to approximately 0.8 ml of “host solution” (3.5 mM β-cyclodextrin in deuterated buffer) until at least 5 equiv of “guest” molecules were added. 1H-NMR spectra were obtained at 25° C. upon each addition of the “guest” solution and a binding isotherm was constructed by monitoring the protons on 1-adamantaneacetic acid.
The binding isotherms were fit to a standard 1:1 host-guest binding model (Eq. 1-3) where [HG] is the concentration of host-guest complex, [H]0 is the total concentration of “host” molecules, [G]0 is the total concentration of “guest” molecules, do is the proton peak position at [HG]/[H]0=0, δ is the proton peak position measured at different values of [HG]/[H]0, and δ∞ is a fitting parameter. All spectra were obtained with a X500 Bruker Avance III HD system equipped with a TXO Prodigy probe and analyzed with the MestreNova (Mestrelab Research) software.

SMILES | storage modulus (G′) [1] | G′ after high shear ([2]; after high shear) | G′ before high shear ([2]; before high shear) | association constant (Ka) [3]
CCCCCCCCCCCCCCCC(=O)N[C@H](C(=O)N[C@H](C(=O)N[C@@H](C)C(=O)N[C@@H](C)C(=O)N[C@@H](CCC(=O)O)C(=O)N[C@@H](CCC(=O)O)C(N)=O)C(C)C)C(C)C [E2 PA, C16V2A2E2] (Palmitoyl-VVAAEE-NH2) | 20±12 Pa | 26.8 Pa | 43.9 Pa | 
OC[C@H]1O[C@@H]2O[C@H]3[C@H](O)[C@@H](O)[C@@H](O[C@H]4[C@H](O)[C@@H](O)[C@@H](O[C@H]5[C@H](O)[C@@H](O)[C@@H](O[C@H]6[C@H](O)[C@@H](O)[C@@H](O[C@H]7[C@H](O)[C@@H](O)[C@@H](O[C@H]8[C@H](O)[C@@H](O)[C@@H](O[C@H]1[C@H](O)[C@H]2O)O[C@@H]8CO)O[C@@H]7CO)O[C@@H]6CO)O[C@@H]5CO)O[C@@H]4CO)O[C@@H]3CO [β-cyclodextrin] |  |  |  | 395 M⁻¹
